These results are taken from doi:10.1101/2021.01.09.426030v4 (biorxiv, 2022).

Structures are written as SMILES.

Among the test systems are BT112; BT179; BT333.
Test in all cases: cells
Holding throughout (design): species or system GBM PDCLs
Common to all, as to conditions: 72 h, read-out: Erlotinib (IC50 µM)

As a reminder, the IC50 is the point on the concentration scale where inhibition reaches its midpoint. `C#Cc1cccc(Nc2ncnc3cc(OCCOC)c(OCCOC)cc23)c1` [erlotinib]: the IC50 in the assay on BT112 was 18.5 µM; in the assay on BT179, 11.7 µM; in the assay on BT333, greater than 20 µM.
